Data on 14 molecules can be found in patent US20220348590A1, “CYCLOOXYGENASE-2 INHIBITORS AND USES THEREOF” (The Board Institute, Inc., priority 2019, published 2022).

Where two headings read alike, the source gives them in different places.

In this experiment the target is T1, human recombinant COX2 (hCOX2) (UniProt P35354).
T1 sequence (P35354 1-604): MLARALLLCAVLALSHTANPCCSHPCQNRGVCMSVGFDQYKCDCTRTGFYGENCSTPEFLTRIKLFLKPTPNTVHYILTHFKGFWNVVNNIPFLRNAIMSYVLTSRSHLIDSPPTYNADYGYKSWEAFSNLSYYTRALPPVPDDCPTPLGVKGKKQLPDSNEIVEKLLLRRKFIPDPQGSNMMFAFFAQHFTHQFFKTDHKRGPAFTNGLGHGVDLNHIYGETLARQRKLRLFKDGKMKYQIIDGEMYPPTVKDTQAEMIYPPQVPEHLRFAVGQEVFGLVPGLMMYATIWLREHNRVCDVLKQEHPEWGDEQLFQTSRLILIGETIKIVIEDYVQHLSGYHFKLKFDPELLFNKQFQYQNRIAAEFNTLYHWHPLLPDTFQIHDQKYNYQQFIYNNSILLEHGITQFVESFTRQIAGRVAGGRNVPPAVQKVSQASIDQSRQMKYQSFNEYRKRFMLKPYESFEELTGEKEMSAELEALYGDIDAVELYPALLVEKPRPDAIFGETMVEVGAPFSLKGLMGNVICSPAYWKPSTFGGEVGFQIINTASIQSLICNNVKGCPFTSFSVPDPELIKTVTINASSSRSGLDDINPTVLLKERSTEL
Description: LCMS-based COX2 enzymatic inhibition assay (PGE2 quantification). In kind it is biochemical. Details: COX2 2 minutes pge2/pge2d4 area ratio Avg; other: 2 minutes; readout pge2/pge2d4 area ratio; average; COX2 2 minutes pge2/pge2d4 area ratio Avg; LLE; average LLE; COX2 2 minutes pge2 area (counts) Avg; readout pge2 area (counts); other: 2 min; "ovine COX2 (oCOX2), human recombinant COX2 (hCOX2)". The conditions noted are these: for IC50: average. In a few lines:
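Ovine COX-1 (0.1 μg) or human recombinant COX2 (0.2 μg) in 100 mM Tris.HCl pH 8.0 with hematin and epinephrine, preincubated with inhibitor 10 min at 37 °C. Reaction with 5 μM arachidonic acid stopped after 2 min with HCl; PGE2 quantified by LC-MS-MS. IC50 from 12 concentrations in triplicate.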

[1] abbreviates: 2 minutes, readout pge2/pge2d4 area ratio, average LLE.
Where [2] appears, read: 2 minutes, readout pge2/pge2d4 area ratio, read-out: COX2 2 minutes pge2/pge2d4 area ratio Avg. IC50.
Where [3] appears, read: 2 minutes, readout pge2 area (counts), average LLE.
The mark [4] stands for this setting: 2 minutes, readout pge2 area (counts), read-out: COX2 2 minutes pge2 area (counts) Avg. IC50.

As to `CS(=O)(=O)c1ccc(-c2cncc(SCc3ccccn3)n2)cc1` [Compound 131], the “COX2 2 minutes pge2/pge2d4 area ratio Avg. LLE” value under setting [1] was found to be 5.065. Further, the IC50 reads like this: under setting [2], 157 nM; under setting [4], 131 nM. For the same molecule, under setting [3], the “COX2 2 minutes pge2 area (counts) Avg. LLE” value (“COX2 2 minutes pge2 area” below) stood at 5.129.
In the same order, the values of `CS(=O)(=O)c1ccc(-c2cncc(Oc3ccccc3)n2)cc1` [Compound 132] are 4.451, 158 nM, 975 nM and 3.942.
In the same order, the values of `COCCOc1ncc(NCc2cccs2)nc1-c1ccc(S(C)(=O)=O)cc1` [Compound 133] are 4.558, 167 nM, 126 nM and 4.582.
Turning to `CS(=O)(=O)c1ccc(-c2cncc(OCc3ccsc3)n2)cc1` [Compound 134], the “COX2 2 minutes pge2/pge2d4 area ratio Avg. LLE” value under setting [1] is 4.3725. Also, the IC50 reads like this: under setting [2], 183 nM; under setting [4], 239 nM. The “COX2 2 minutes pge2 area” value under setting [3] was found to be 4.235.
The corresponding values for `CS(=O)(=O)c1ccc(-c2cccc(NCc3cnoc3)n2)cc1` [Compound 136] are 5.1378, 196 nM, 161 nM and 5.206.
In the same order, the values of `CS(=O)(=O)c1ccc(-c2cncc(NCc3cccs3)n2)c(O)c1` [Compound 137] are 4.977, 197 nM, 215 nM and 4.936.
In the same order, the values of `CS(=O)(=O)c1ccc(-c2cncc(OCc3cncs3)n2)cc1` [Compound 138] are 4.957, 202 nM, 198 nM and 4.957.
As to `CS(=O)(=O)c1ccc(-n2nnc3ccc(NCc4cccs4)nc32)cc1` [Compound 139], the IC50 was determined as 207 nM under setting [2] and 219 nM under setting [4].
For the molecule `CS(=O)(=O)c1ccc(-c2nc(OCc3cccs3)cc3ncccc23)cc1` [Compound 140], the “COX2 2 minutes pge2/pge2d4 area ratio Avg. LLE” value under setting [1] is on record as 2.8258. For the same molecule, the IC50 was 212 nM under setting [2] and 311 nM under setting [4]. The “COX2 2 minutes pge2 area” value under setting [3] turned out to be 2.75.
The corresponding values for `CS(=O)(=O)c1ccc(-c2cncc(NCc3ccns3)n2)cc1` [Compound 142] are 5.555, 221 nM, 211 nM and 5.576.
In the same order, the values of `CS(=O)(=O)c1ccc(-c2cncc(OCc3ccco3)n2)cc1` [Compound 143] are 4.842, 226 nM, 216 nM and 4.928.
In the same order, the values of `CS(=O)(=O)c1ccc(-c2cnc(C(F)(F)F)c(NCc3cccs3)n2)cc1` [Compound 144] are 3.605, 234 nM, 229 nM and 3.637.
On to `Cc1ncc(-c2ccc(S(C)(=O)=O)cc2)nc1NCc1cccs1` [Compound 145], for which the “COX2 2 minutes pge2/pge2d4 area ratio Avg. LLE” value under setting [1] was determined as 4.321. Moreover, the IC50 is 234 nM under setting [2]; 217 nM under setting [4]; 38.8 nM (10 minutes, readout pge2 area (counts), read-out: COX2 10 minutes pge2 area (counts) Avg. IC50). Moreover, the “COX2 2 minutes pge2 area” value under setting [3] is given as 4.37. For the same molecule, the “COX2 10 minutes pge2 area (counts) Avg. LLE” value (10 minutes, readout pge2 area (counts), average LLE) is recorded as 5.186.
`CS(=O)(=O)c1ccc(-c2ccc3ccn(-c4ccccc4)c3n2)cc1` [Compound 146]: under setting [1], the “COX2 2 minutes pge2/pge2d4 area ratio Avg. LLE” value is on record as 2.102. In addition, the IC50 was found to be 248 nM under setting [2] and 201 nM under setting [4]. The “COX2 2 minutes pge2 area” value under setting [3] worked out at 2.132.
